What was measured:
[1] = system: Balb/cJ mice; assay: LPS induced pulmonary neutrophilia in mice; format: in vivo, mouse; conditions: LPS challenged mice; i.n., i.p. or per os
Protocol: Male Balb/cJ mice (Iffa Credo, France) weighing ˜25 g are randomly grouped into a negative control group, positive control group and groups treated with compounds to be assayed). Test compounds, as well as vehicle (DMSO+0.5% methyl-cellulose) (all from Sigma), are administered i.n., ip. or per os two hours prior to administration of lipopolysaccharide (LPS) (E. coli, serotype 0111:B4, Sigma) or two hours prior and two hours after administration of LPS. Test compounds are administered at a single dose (two hours prior the challenge) or divided into two doses (two hours prior and two hours after the challenge). LPS solution in phosphate buffered saline (PBS) (Sigma) is administered intranasally in volume of 60 μL at concentration of 33,33 μg/mL, to all experimental groups except the negative control group, which received the same volume (60 μL) of vehicle PBS. During the challenge, animals were anaesthetized by using intraperitoneal anaesthesia. Animals are euthanized by i.p. anesthesia overdose approximately 24 hours after application of LPS to obtain bronchoalveolar lavage fluid (BALF), which is used to determine total protein concentration as well as concentrations of cytokines, such as IL-1β and TNF-α, absolute number of cells, and percentage of neutrophils in BALF. Bronchoalveolar lavage (BAL) is performed by infusing 1 mL of PBS divided into 3 separate volumes (0.4, 0.3 and 0.3 ml) through trachea into the lungs. The fluid is immediately withdrawn and the cell suspension stored into previously prepared 1.5 mL Eppendorf tube. Bronchoalveolar lavage fluid (BALF) is then centrifuged at […] for 5 min (4° C.). Cells are resuspended in 700 μL of PBS. To prepare cytospins, 320 μL of suspension is centrifuged at 250 rpm for 10 min (Cytospin-3, Shandon Instruments). Cells are stained with Dif-Quik (Dade Behring) to determine percentage of neutrophils by counting of at least 200 cells. The remaining resuspended cells are used for total cell count in BALF analysis (Sysmex SF 3000). […] Accumulation of granulocytes and mononuclear cells in peribronclhial (PB) and perivascular (PV) lung tissue areas and alveolar spaces is monitored.
Results can be expressed as (I) decrease of absolute cell number per mL in BALF, (II) decrease of number of neutrophils per mL in BALF, (III) reduction of relative number (percentage) of neutrophils in BALF, (IV) reduction of cytokine concentrations in BALF, as well as (V) suppression of accumulation of granulocytes and mononuclear cells in peribronchial (PB) and perivascular (PV) lung tissue areas and in alveolar spaces by pathohistological scoring of treated animals compared to positive control (LPS stimulated, but untreated animals).

[2] = system: human PDE4; assay: Human PDE4 assay (U937); format: biochemical; conditions: 10 μM concentration
Protocol: (§1) All compounds were dissolved in dimethyl sulfoxide (DMSO). Final concentration of the DMSO in all tests was 1% (v/v). Inhibition in all tests is considered preferred if it exceeds 50% at 10 μM concentration (or less).
PDE4 assay. PDE is implicated in diseases such as chronic obstructive pulmonary disease and neutrophilia. Human monocytic leukemia cell line U937 is pre-incubated at 25° C. in Tris-HCl buffer containing magnesium ions for 15 minutes. 1.01 μM tritium labeled cyclic adenosine monophosphate (cAMP) is added as substrate, followed by incubation at 25° C. for 20 minutes. Percentage of inhibition is calculated by comparing the adenosine levels in supernatant which is formed from cAMP in treated versus control cells.

[3] = target: T1, TxA2 receptor (Homo sapiens, UniProt P21731); assay: Human thromboxane A2, TxA2, assay (SQ-29548 competition); format: binding; conditions: 10 μM concentration; HEK-293
T1 construct: expressed in transfected cells; host or cells: HEK-293
T1 sequence (P21731 1-343): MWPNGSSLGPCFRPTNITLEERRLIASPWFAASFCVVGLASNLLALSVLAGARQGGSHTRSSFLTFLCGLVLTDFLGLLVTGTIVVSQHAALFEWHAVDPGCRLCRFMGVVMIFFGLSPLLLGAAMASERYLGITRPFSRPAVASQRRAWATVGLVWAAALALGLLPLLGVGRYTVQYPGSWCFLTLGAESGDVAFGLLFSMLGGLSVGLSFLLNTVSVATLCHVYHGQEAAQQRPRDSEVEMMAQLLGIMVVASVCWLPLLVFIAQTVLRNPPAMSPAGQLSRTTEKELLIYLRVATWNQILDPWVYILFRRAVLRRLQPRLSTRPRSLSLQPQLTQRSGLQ
Protocol: as §1
TxA2 receptor is expressed in HEK-293 cell line. Compounds and radiolabelled competitor SQ-29548 are incubated for 30 minutes at 25° C. Level of bound SQ-29548 is measured by scintillation counting, and competition is calculated from the total amount of the bound SQ-29548. […] is an unstable lipid mediator involved in blood clotting, and immune processes.

[4] = system: Human prostanoid receptor; assay: Human prostanoid receptor assay ([3H]-PGD2 competition); format: binding; conditions: 10 μM concentration; CHO-K1
Protocol: as §1
Human prostanoid receptor is expressed in Chinese hamster ovary cell line, clone K1 (CHO-K1). Substances and radioactive competitor (tritium labelled Prostaglandin D2 in 1.7 nM concentration) are incubated with cells in HEPES buffer for 2 hours at 25° C. in the presence of manganese ions. Level of the bound PGD2 is measured by scintillation counting, and competition is calculated from comparing the total amount of the bound PGD2 in treated versus control cells. Prostanoids are involved in many physiological and pathological processes, from inflammation to pain.

Structure (SMILES) | reduction of percentage of neutrophils and/or their total number in BALF and/or by histological scoring [1] | inhibition of human PDE4 activity [2] | TxA2 receptor, competition with SQ-29548 [3] | human prostanoid receptor, competition with tritium labelled PGD2 [4]
CC(=O)C(c1c(O)c2cccc(C(C)C)c2oc1=O)c1c(O)c2cccc(C(C)C)c2oc1=O [Example 19] | statistically significant reduction | significantly inhibited | significantly relevant activity | significantly relevant activity
CC(C)c1cccc2c(O)c(C(CO)c3c(O)c4cccc(C(C)C)c4oc3=O)c(=O)oc12 [Example 30] | statistically significant reduction | significantly inhibited | significantly relevant activity | significantly relevant activity
CC(C)c1cccc2c(O)c(C(C(=O)OCCO)c3c(O)c4cccc(C(C)C)c4oc3=O)c(=O)oc12 [Example 50] | statistically significant reduction | significantly inhibited | significantly relevant activity | significantly relevant activity
